The values below come from publication PMC10820089, “Comparative Studies on the Photoreactivity, Efficacy, and Safety of Depigmenting Agents” (Pharmaceuticals, 2023).

One series addresses tyrosinase. The following applies: cited from earlier work; for IC50: read-out: IC50 tyrosinase inhibition (literature).
The nature of series [1]: Cell viability (PrestoBlue) in B-16V melanocytes. The following applies: mouse, B-16V melanocytes, IC50 for B-16V cell viability, 48 h treatment, 0–300 µM in DMSO. Here is the method:
(§1) Given that ABT is a glycosylated derivative of hydroquinone, there is a potential for the release of hydroquinone in vivo.
(§2) B-16V cells (DSMZ ACC-370, Braunschweig, Germany) were cultured in Dulbecco’s Modified Eagle’s Medium (DMEM) containing 3.7 g/L NaHCO3, 1.0 g/L d-glucose, 1 mM sodium pyruvate, and stable glutamine, supplemented with 10% (v/v) heat-inactivated fetal bovine serum (FBS), 50 U/mL penicillin, and 50 μg/mL streptomycin (all reagents from PAN-Biotech GmbH, Aidenbach, Germany). The cells were cultivated at 37 °C in a humidified atmosphere of 95% air and 5% CO2. Subculturing was performed twice a week, when the cells reached 70–80% confluence, through cell trypsinization with 0.25% Trypsin and 1 mM EDTA.4Na (PAN-Biotech GmbH, Aidenbach, Germany).
(§3) To evaluate cell viability, B-16V cells were seeded at a cell density of 3 × 10^4 cells/mL in 96-well plates and allowed to proliferate for 48 h. […] Then, PrestoBlue® reagent (Invitrogen, Waltham, MA, USA) was added to each well. When entering a living cell, the PrestoBlue® reagent is reduced from resazurin to resorufin, whose fluorescence is proportional to the number of metabolically active cells. Fluorescence was measured at an excitation/emission wavelength of 530/590 nm in an automated microplate reader (Synergy HT, Biotek Instruments Inc., Winooski, VT, USA).
(§4) GraphPad Prism 9.5.1 was used to fit non-linear regression to the data and calculate the IC50 values of depigmenting compounds for B-16V cell viability.

Series [2] relates to Tyrosinase from Agaricus bisporus. The experiment in a line: Tyrosinase inhibition assay (L-tyrosine substrate). It is filed as biochemical. The conditions noted are these: for % Inhib (150 µM) of tyrosinase activity: 150 µM compound, n = 3. Here is the method:
Sodium phosphate monobasic monohydrate was obtained from Fluka (Buchs, Switzerland). Sodium phosphate dibasic anhydrous and methanol were obtained from Carlo Erba Reagents (Val-de-Reuil, France). Imidazole, p-nitroso dimethylaniline (RNO), and nitro blue tetrazolium chloride (NBT) were purchased from Alfa Aesar (Ward Hill, MA, USA).
Tyrosinase inhibition assays were carried out as described in Rosa et al.. Briefly, 25 μL of tyrosinase enzyme solution (135 U/mL), 25 μL of ten serial concentrations of the compounds (dissolved in 0.1 M phosphate buffer pH 6.8 containing no more than 2.5% DMSO, yielding final concentrations of 0.3–150 μM), and 100 μL phosphate buffer were mixed in a 96-well plate and incubated at 37 ± 2 °C for 20 min. Then, 50 μL of 1.66 mM of tyrosine solution in 0.1 M phosphate buffer (pH 6.8) were added. Enzyme activity was measured at 490 nm every 10 min for 30 min in a Bio-Rad Model 680 Microplate Reader (Bio-Rad Laboratories, Inc., Hercules, CA, USA). In cases where the samples were very active at the minimum concentration tested, lower concentration ranges were assayed. […] The experiments were conducted in triplicate. For each concentration, enzyme activity was calculated as a percentage of the velocities compared to those of the assay using buffer without any inhibitor. […] The type of inhibition and inhibition parameters of the compounds, i.e., the Km and Vmax, were determined by Lineweaver–Burk plot analysis using various concentrations of L-tyrosine.

Series [3] is described as follows: ROS assay for photoreactivity (singlet oxygen and superoxide anion generation). It is filed as physicochemical. The following applies: for ROS assay: superoxide anion (O2^•−) / ROS assay: singlet oxygen (^1O2): 200 µM final concentration, mean ± SEM, n = 2; for ROS assay: superoxide anion (O2^•−): cut-off O2^•− ≥ 20 = photoreactive; for ROS assay: singlet oxygen (^1O2): cut-off ^1O2 ≥ 25 = photoreactive; for Photoreactivity classification from ROS assay: photoreactive if SO ≥ 25 and/or SA ≥ 20. The method, then:
In addition to light absorption, the generation of reactive species from chemicals following the absorption of UV-visible light is seen as a key determinant for causing direct phototoxic reactions. The ROS assay can be used as an in chemico screening tool for evaluating the photoreactivity of chemicals. […] These depigmenting agents were tested at 200 μM (final concentration) to identify precipitation, coloration, or any other interference in the reaction mixture.
The ROS assay was performed as previously described in Aguiar et al. and the OECD ROS assay for photoreactivity protocol. Stock solutions of all substances were prepared at 10 mM in DMSO or 20 mM sodium phosphate buffer (NaPB, pH 7.4) and used within the same day. SO generation was detected by spectrophotometric measurement of RNO bleaching, followed by a decrease in the absorbance of RNO at 440 nm. SA generation was detected by observing the reduction of NBT to NBT^+, the formation of which can be monitored spectrophotometrically at 560 nm. The depigmenting agents were tested at a final concentration of 200 μM. When precipitation was observable (using a microscope) before light exposure, a lower concentration (20 μM) of the depigmenting agents was tested.
Photoreactivity of the test substances was evaluated according to the result (mean of triplicate determinations) from the ROS assay: a test substance was classified as a photoreactive substance when an SO value of 25 or more and/or an SA value of 20 or more was measured; in turn, it was considered to be a non-photoreactive substance when values of less than 25 for SO and less than 20 for SA were recorded.

Series [4] is described as follows: UV-visible spectral analysis, molar extinction coefficient (MEC). It is filed as physicochemical. The conditions noted are these: at 290 nm; for Absorbance (10 µg mL^−1): 10 µg mL^−1 in methanol or 20 mM NaPB pH 7.4, 10 mm path length. The text has this: The phototoxic potential of chemicals is related to the photochemical properties of compounds, especially light absorption within the range 290–700 nm and the generation of reactive species following absorption of UV-visible light. […] The studied depigmenting agents contain in their molecular structures π systems (some of them conjugated), phenolic and/or hydroxyl, carbonyl, and amine groups. The absorption peaks observed in the UV-visible spectra can be assigned to π-π* and n-π* electronic transitions.
As the wavelength of maximum absorbance obtained for all compounds was below 290 nm, the MEC value for each depigmenting compound was calculated at this wavelength (Table 1).
UV-visible spectral analysis was conducted as previously described. The depigmenting agents were dissolved in methanol or 20 mM sodium phosphate buffer (NaPB, pH 7.4) at 10 μg/mL (final concentration). The UV-visible absorption spectra were analyzed using a Shimadzu UV-1700 spectrophotometer (Shimadzu Corp., Kyoto, Japan) and UV-transparent quartz cuvettes (Hellma, Müllheim, Germany) with a 10 mm path length. Each spectrum was corrected for solvent-specific baseline absorption. Molar extinction coefficients (MEC) were calculated using the highest absorption peaks between 290 and 700 nm at 10 μM.

The next series concerns B-16V melanocytes. The experiment in a line: Cell viability (PrestoBlue) in B-16V melanocytes. The following applies: 48 h treatment, 10–1000 µM in water. The method, then: as §1, §2, §3, §4
For another series, the system named is B16 mouse melanoma cells. The conditions noted are these: cited from earlier work.

Where “and” joins values, the source holds several entries; their conditions need not be identical. Identical values can stand only once. Like-named read-outs stand apart in the source and are kept apart here.

As for `CCCCc1ccc(O)cc1O` [4BR, 4-butylresorcinol], the IC50 on tyrosinase is 21 µM and 13.5 µM. Also, the IC50 at 48 h in series [1] is 97.6 ± 11.6 µM. For the same compound, the “% Inhib (150 µM) of tyrosinase activity” value in series [2] was 100%. In series [2] (Vmax constant, Km increases with inhibitor concentration), the “Type of tyrosinase inhibition (Lineweaver-Burk plot)” value is “competitive inhibitor”. Moreover, in series [3], the “ROS assay: superoxide anion (O2^•−)” value turned out to be 13 ± 1, the “ROS assay: singlet oxygen (^1O2)” value was 1 ± 0 and the “Photoreactivity classification from ROS assay” value (“Photoreactivity classification” for short) is recorded as “non-photoreactive”. In series [4], the “MEC (molar extinction coefficient)” value is reported as “ε = 3471 L mol^−1 cm^−1” and the “Absorbance (10 µg mL^−1)” value is given as 0.2088.

Turning to `O=C1O[C@H]([C@@H](O)CO)C(O)=C1O` [AA, ascorbic acid, reference compound], the “Effect on B-16V cell viability” value in the series on B-16V melanocytes is “did not interfere with cell viability”. Moreover, the “Prevention of chromophore formation in tyrosinase assay” value in series [2] (150 µM, cannot be interpreted uniquely as tyrosinase inhibition) came out at 58.70%. Also, in series [3], the “ROS assay: superoxide anion (O2^•−)” value worked out at 26 and the “ROS assay: singlet oxygen (^1O2)” value was determined as 671. In series [4], the “MEC (molar extinction coefficient)” value is recorded as “ε = 2793 L mol^−1 cm^−1” and the “Absorbance (10 µg mL^−1)” value was determined as 0.1586.

As to `O=C1O[C@H]([C@@H](O)CO)C(O)=C1O[C@H]1O[C@H](CO)[C@@H](O)[C@H](O)[C@H]1O` [AA-2G, ascorbyl glucoside], the “% Inhib (150 µM) of tyrosinase activity” value in series [2] was determined as 11.17%. In addition, in series [3], the “ROS assay: superoxide anion (O2^•−)” value was 1 ± 0, the “ROS assay: singlet oxygen (^1O2)” value came to 1 ± 1 and the “Photoreactivity classification” value is “non-photoreactive”. Besides, in series [4], the “MEC (molar extinction coefficient)” value is on record as “ε = 1025 L mol^−1 cm^−1” and the “Absorbance (10 µg mL^−1)” value is given as 0.0303.

With `OC[C@H]1O[C@H](Oc2ccc(O)cc2)[C@H](O)[C@@H](O)[C@@H]1O` [ABT, α-arbutin], in the series on tyrosinase (at 125 µM), the “Percentage of tyrosinase inhibition (literature)” value is recorded as “≈ 30%”. In series [2], the “% Inhib (150 µM) of tyrosinase activity” value was 27.04%. Further, in series [3], the “ROS assay: superoxide anion (O2^•−)” value was determined as 0 ± 0, the “ROS assay: singlet oxygen (^1O2)” value was 19 ± 1 and the “Photoreactivity classification” value is “cannot be classified as photoreactive”. The “Photoreactivity classification” value in series [3] (listed as α-arbutin) is listed as “non-photoreactive”. For the same compound, in series [4], the “MEC (molar extinction coefficient)” value is listed as “ε = 2004 L mol^−1 cm^−1” and the “Absorbance (10 µg mL^−1)” value amounted to 0.0736.

Turning to `C=C[C@@](C)(/C=C/c1ccc(O)cc1)CCC=C(C)C` [BAK, bakuchiol], the IC50 at tyrosinase (at 1 mM of L-tyrosine) is 37.2 ± 5.18 µM. For the same compound, in series [1], the IC50 at 48 h came out at 43.4 ± 0.9 µM. In addition, the “% Inhib (150 µM) of tyrosinase activity” value in series [2] is recorded as 52.59%. Also, in series [3], the “ROS assay: superoxide anion (O2^•−)” value is listed as “inconclusive” and the “ROS assay: singlet oxygen (^1O2)” value is on record as “inconclusive”. Further, in series [3] (DMSO or 20 mM NaPB pH 7.4, reaction mixture for SO and SA, 200 µM, lowest concentration 20 µM), the “Solubility / precipitation in ROS assay reaction mixture” value was “showed precipitation in the reaction mixture”. The “Absorbance (10 µg mL^−1)” value in series [4] worked out at 0.2203.

As for `O=c1cc(CO)occ1O` [Kojic acid, kojic acid, reference compound], the “% Inhib (150 µM) of tyrosinase activity” value in series [2] was determined as 99.15%.

Take `NC[C@H]1CC[C@H](C(=O)O)CC1` [TA, tranexamic acid, reference compound]: in the series with B-16V melanocytes, the “Effect on B-16V cell viability” value was “did not interfere with cell viability”. In series [2], the “% Inhib (150 µM) of tyrosinase activity” value is 13.20%. In addition, in series [4], the “MEC (molar extinction coefficient)” value is given as “ε = 380 L mol^−1 cm^−1” and the “Absorbance (10 µg mL^−1)” value turned out to be 0.0242.

Take `Oc1ccc(O)cc1` [hydroquinone]: in the series with B16 mouse melanoma cells, the “Concentration achieving complete growth inhibition” value is 1250 to 2500 ng/mL and the “Concentration initiating growth inhibition” value is 625 ng/mL.

A word on the IC50: it is the point on the concentration scale where inhibition reaches its midpoint.
